Some test systems named below: LOX IMVI melanoma; SF-539 CNS; NCI-H23 lung; SW-620 colon; UACC-257 melanoma; NCI-H226 lung; HOP-92 NSCLC; NCI-H460 lung; MALME-3M melanoma; RXF 393 renal.
Common to all, as to experiment: NCI anticancer screen, dose series, 48 h

In PubChem BioAssay (NCI) one finds GI50 and TGI data, which are given here for eight compounds.

“And” between values parts separate entries of the source, which are not always exact repeats. Identical values can stand only once.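 How tested: cells in 96-well plates exposed to compound for 48 hours at five concentrations. The concentration for 50% growth inhibition is given as GI50. TGI: concentration producing complete growth inhibition.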

Consider `COc1ccc(Cn2cc3c(c2-c2cc(OC)c(OC)c(OC)c2)CCc2cnoc2-3)cc1N`, for which the GI50 was 0.0641 µM in the assay on LOX IMVI melanoma; 0.0344 µM with SF-539 CNS; 0.0507 µM in the assay on NCI-H23 lung; 0.038 µM in the assay on SW-620 colon; over 23.1 µM in the assay with UACC-257 melanoma; 0.537 µM with NCI-H226 lung. Further, the GI50 was 4.58 µM in the assay on HOP-92 NSCLC, 0.0377 µM in the assay with NCI-H460 lung, 0.0382 µM in the assay on MALME-3M melanoma and 0.0319 µM with RXF 393 renal. Besides, the TGI with LOX IMVI melanoma, in the assay on SF-539 CNS, in the assay on NCI-H23 lung, in the assay with SW-620 colon, with UACC-257 melanoma and in the assay with NCI-H226 lung was over 100 µM each time. Also, the TGI was over 100 µM in the assay with HOP-92 NSCLC, 5.22 µM in the assay with NCI-H460 lung, over 100 µM in the assay with MALME-3M melanoma and over 100 µM in the assay on RXF 393 renal.

Take `NS(=O)(=O)c1ccc(-n2ncc3c(Nc4ccccc4)ncnc32)cc1`: the GI50 was 14.9 µM in the assay with LOX IMVI melanoma; 36.2 µM with SF-539 CNS; 1.37 µM with NCI-H23 lung; 30.3 µM with SW-620 colon; 39.4 µM with UACC-257 melanoma; 46.4 µM with NCI-H226 lung. Further, the GI50 in the assay on HOP-92 NSCLC is 23.6 µM; with NCI-H460 lung, 14.9 µM; in the assay on MALME-3M melanoma, 33 µM; with RXF 393 renal, 29.6 µM. The TGI in the assay with LOX IMVI melanoma is 70 µM; in the assay on SF-539 CNS, over 100 µM; with NCI-H23 lung, 23.8 µM; with SW-620 colon, over 100 µM; in the assay with UACC-257 melanoma, over 100 µM; with NCI-H226 lung, over 100 µM. Besides, the TGI in the assay on HOP-92 NSCLC, in the assay on NCI-H460 lung, with MALME-3M melanoma and in the assay on RXF 393 renal was over 100 µM each time.

`COc1cccc(CCC(=O)c2cc3c(N)c(C(=O)Nc4cccc(Cl)c4C)sc3nc2C)c1`: the GI50 is 0.664 µM in the assay with LOX IMVI melanoma; 0.408 µM in the assay on SF-539 CNS; 2.35 µM with NCI-H23 lung; 0.469 µM with SW-620 colon; 4.25 µM with UACC-257 melanoma; 1.45 µM in the assay with NCI-H226 lung. The GI50 with HOP-92 NSCLC was 0.753 µM; in the assay on NCI-H460 lung, 0.376 µM; with MALME-3M melanoma it was 0.469 µM; in the assay with RXF 393 renal it was 0.393 µM. Also, the TGI was over 100 µM in the assay on LOX IMVI melanoma; 2.78 µM in the assay with SF-539 CNS; over 100 µM with NCI-H23 lung; over 100 µM in the assay with SW-620 colon; over 100 µM with UACC-257 melanoma; 32.7 µM in the assay on NCI-H226 lung. Also, the TGI in the assay with HOP-92 NSCLC is over 100 µM; in the assay with NCI-H460 lung, over 75.2 µM; with MALME-3M melanoma, over 100 µM; with RXF 393 renal, 2.95 µM.

Take `COc1cc(C2CC(=O)Nc3c2ccc2ccccc32)cc(Br)c1OC` (stereo not drawn): the GI50 was 0.452 µM in the assay on LOX IMVI melanoma; 0.583 µM in the assay on SF-539 CNS; 0.565 µM with NCI-H23 lung; 0.359 µM with SW-620 colon; 0.504 µM in the assay on UACC-257 melanoma; 6.4 µM with NCI-H226 lung. Further, the GI50 was 0.176 µM with HOP-92 NSCLC, 0.368 µM with NCI-H460 lung, 0.582 µM with MALME-3M melanoma and 0.78 µM in the assay with RXF 393 renal. Moreover, the TGI in the assay with LOX IMVI melanoma is over 33.5 µM; in the assay on SF-539 CNS, 15.1 µM; in the assay on NCI-H23 lung it was over 100 µM; in the assay on SW-620 colon it was over 100 µM; with UACC-257 melanoma, 68.1 µM; in the assay with NCI-H226 lung, over 100 µM. Further, the TGI was 2.42 µM with HOP-92 NSCLC, over 20.2 µM in the assay with NCI-H460 lung, over 70.6 µM with MALME-3M melanoma and 7.05 µM in the assay on RXF 393 renal.

With `Cc1ncc(C(=O)Nc2ccc(CN3CCN(C)CC3)c(C(F)(F)F)c2)cc1C#Cc1c(N)ncc2ccccc12`, the GI50 was 0.173 µM in the assay with LOX IMVI melanoma; 0.47 µM with SF-539 CNS; 0.439 µM in the assay on NCI-H23 lung; 0.227 µM with SW-620 colon; 0.477 µM with UACC-257 melanoma; 0.393 µM in the assay on NCI-H226 lung. For the same compound, the GI50 in the assay on HOP-92 NSCLC is 0.0535 µM; in the assay on NCI-H460 lung it was 0.447 µM; in the assay on MALME-3M melanoma it was 0.102 µM; with RXF 393 renal it was 0.465 µM. Besides, the TGI in the assay with LOX IMVI melanoma is 0.605 µM; with SF-539 CNS, 0.914 µM; in the assay on NCI-H23 lung it was 1.02 µM; with SW-620 colon, 0.754 µM; in the assay with UACC-257 melanoma it was 1.06 µM; in the assay on NCI-H226 lung it was 1.04 µM. Moreover, the TGI in the assay with HOP-92 NSCLC amounted to 0.505 µM; with NCI-H460 lung, 0.952 µM; with MALME-3M melanoma it was 0.475 µM; in the assay with RXF 393 renal, 0.915 µM.

As for `CN(C)CCSCCO`, the TGI with LOX IMVI melanoma, in the assay on SF-539 CNS, in the assay on NCI-H23 lung, in the assay on SW-620 colon, in the assay on UACC-257 melanoma and in the assay on NCI-H226 lung was over 100 µM in each case. In addition, the TGI in the assay with HOP-92 NSCLC, in the assay with NCI-H460 lung, in the assay on MALME-3M melanoma and in the assay on RXF 393 renal was over 100 µM throughout.

Take `CC(C)C[C@H](NC(=O)[C@@H](NC(=O)c1cccc(-c2ccccc2)n1)[C@@H](C)O)B(O)O`: the GI50 in the assay with LOX IMVI melanoma is 0.00473 µM; in the assay with SF-539 CNS it was 0.00264 µM; in the assay with NCI-H23 lung, 0.00633 µM; with SW-620 colon, 0.00411 µM; in the assay on UACC-257 melanoma, 0.00502 µM; in the assay on NCI-H226 lung, 0.00219 µM and < 0.0116 µM. The GI50 in the assay on HOP-92 NSCLC was 0.0209 µM; in the assay with NCI-H460 lung it was 0.0285 µM and 0.0237 µM; with MALME-3M melanoma, 0.00297 µM; with RXF 393 renal it was 0.00414 µM. In addition, the TGI in the assay on LOX IMVI melanoma was 0.0181 µM and 0.0119 µM; in the assay with SF-539 CNS, 0.00684 µM and < 0.0114 µM; in the assay on SW-620 colon it was 2.34 µM; with UACC-257 melanoma, 0.0319 µM and 0.0213 µM; in the assay on NCI-H226 lung it was 0.00538 µM and 0.0245 µM; with HOP-92 NSCLC, 0.119 µM. Besides, the TGI was 0.532 µM in the assay with NCI-H460 lung; 0.00838 µM and < 0.0196 µM in the assay on MALME-3M melanoma; 0.0151 µM and < 0.0119 µM in the assay on RXF 393 renal.

On to `Cn1cnc2c(F)c(Nc3ccc(Br)cc3F)c(C(=O)NOCCO)cc21`, for which the GI50 in the assay with LOX IMVI melanoma is 0.0936 µM and 0.399 µM; with SF-539 CNS, > 3.24 µM and 21.5 µM; with NCI-H23 lung, 0.227 µM and 0.215 µM; with SW-620 colon, 0.029 µM and 0.0449 µM; with UACC-257 melanoma, 0.0224 µM and 0.024 µM; in the assay on HOP-92 NSCLC it was 0.0606 µM and 0.11 µM. In addition, the GI50 in the assay on NCI-H460 lung is over 100 µM; with MALME-3M melanoma it was 0.0136 µM and < 0.01 µM; in the assay on RXF 393 renal it was 0.455 µM and 4.39 µM. The TGI was > 4.03 µM and 42.8 µM in the assay with LOX IMVI melanoma; over 100 µM in the assay on SF-539 CNS; over 100 µM with NCI-H23 lung; over 100 µM with SW-620 colon; 0.253 µM and 0.148 µM in the assay on UACC-257 melanoma; over 100 µM with NCI-H226 lung. Also, the TGI in the assay on HOP-92 NSCLC was 1.9 µM and 2.01 µM; with NCI-H460 lung it was over 100 µM; in the assay on MALME-3M melanoma it was 0.138 µM and 0.0486 µM; with RXF 393 renal it was over 96.2 µM.
